Source: ChEMBL document CHEMBL4261648, “Lobaric acid and pseudodepsidones inhibit NF-κB signaling pathway by activation of PPAR-γ” (Bioorg Med Chem, 2018)
Calls of active or inactive are those of the source. No cut-off for these calls is given here.

Legend:
U-937 [1] = assay: Antiinflammatory activity in PMA-differentiated human U937 cells assessed as inhibition of LPS-induced TNFalpha secretion at 80 uM preincubated for 2 hrs followed by LPS stimulation and measured after 24 hrs post LPS challenge by ELISA relative to control; format: functional
U-937 [2] = assay: Antiinflammatory activity in PMA-differentiated human U937 cells assessed as inhibition of LPS-induced TNFalpha secretion at 20 uM preincubated for 2 hrs followed by LPS stimulation and measured after 24 hrs post LPS challenge by ELISA relative to control; format: functional
[3] = molecular target: Toll-like receptor 4 (Homo sapiens) (UniProt O00206); assay: (§1) Inhibition of TLR4 in human U937-3xkappaB-LUC cells assessed as inhibition of Aggregatibacter actinomycetemcomitans LPS-induced NF-kappaB activation at 50 uM preincubated for 30 mins followed by LPS stimulation and measured after 6 hrs post LPS challenge by Bright-Glo luciferase reporter gene assay relative to control
Toll-like receptor 4 (Homo sapiens), sequence (O00206 whole entry): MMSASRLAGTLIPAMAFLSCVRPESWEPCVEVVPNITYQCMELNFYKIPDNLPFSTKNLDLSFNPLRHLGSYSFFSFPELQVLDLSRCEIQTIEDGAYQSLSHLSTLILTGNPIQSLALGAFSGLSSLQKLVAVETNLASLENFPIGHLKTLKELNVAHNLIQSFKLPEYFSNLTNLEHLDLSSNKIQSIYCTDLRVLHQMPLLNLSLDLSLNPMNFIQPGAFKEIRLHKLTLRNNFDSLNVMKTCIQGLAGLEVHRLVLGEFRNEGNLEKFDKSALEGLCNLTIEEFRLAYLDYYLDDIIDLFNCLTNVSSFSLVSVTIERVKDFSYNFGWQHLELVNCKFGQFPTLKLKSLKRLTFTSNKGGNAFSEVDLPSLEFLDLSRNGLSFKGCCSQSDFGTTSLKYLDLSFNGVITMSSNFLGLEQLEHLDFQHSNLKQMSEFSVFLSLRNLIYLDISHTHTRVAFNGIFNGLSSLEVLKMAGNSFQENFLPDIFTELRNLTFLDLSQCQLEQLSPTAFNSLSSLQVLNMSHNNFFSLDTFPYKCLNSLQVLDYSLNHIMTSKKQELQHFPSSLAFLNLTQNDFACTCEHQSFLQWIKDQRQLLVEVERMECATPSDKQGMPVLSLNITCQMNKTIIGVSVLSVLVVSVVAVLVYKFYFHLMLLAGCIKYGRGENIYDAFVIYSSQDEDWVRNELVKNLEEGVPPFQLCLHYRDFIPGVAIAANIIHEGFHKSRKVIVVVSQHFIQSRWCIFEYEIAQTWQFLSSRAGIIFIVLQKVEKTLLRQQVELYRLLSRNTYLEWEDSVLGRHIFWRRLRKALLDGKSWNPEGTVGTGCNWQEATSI

U-937 [4] = assay: Antiinflammatory activity in PMA-differentiated human U937 cells assessed as inhibition of LPS-induced TNFalpha secretion at 10 uM preincubated for 2 hrs followed by LPS stimulation and measured after 24 hrs post LPS challenge by ELISA relative to control; format: functional
[5] = Cytotoxicity against PMA-differentiated human U937 macrophages assessed as cell viability at 10 uM after 24 hrs by MTT assay relative to untreated control; format: cell-based, U-937; settings: read-out: Activity
[6] = Cytotoxicity against PMA-differentiated human U937 macrophages assessed as cell viability at 20 uM after 24 hrs by MTT assay relative to untreated control; format: cell-based, U-937; settings: read-out: Activity
[7] = Cytotoxicity against PMA-differentiated human U937 macrophages assessed as cell viability at 80 uM after 24 hrs by MTT assay relative to untreated control; format: cell-based, U-937; settings: read-out: Activity
[8] = molecular target: Toll-like receptor 4 (Homo sapiens) (UniProt O00206); assay: as §1, with “5” for “50”
U-937 [9] = assay: Antiinflammatory activity in PMA-differentiated human U937 cells assessed as inhibition of LPS-induced TNFalpha secretion at 40 uM preincubated for 2 hrs followed by LPS stimulation and measured after 24 hrs post LPS challenge by ELISA relative to control; format: functional
[10] = molecular target: Toll-like receptor 4 (Homo sapiens) (UniProt O00206); assay: as §1, with “20” for “50”
[11] = molecular target: Toll-like receptor 4 (Homo sapiens) (UniProt O00206); assay: as §1, with “10” for “50”
[12] = Cytotoxicity against PMA-differentiated human U937 macrophages assessed as cell viability at 40 uM after 24 hrs by MTT assay relative to untreated control; format: cell-based, U-937; settings: read-out: Activity
[13] = molecular target: T1, Peroxisome proliferator-activated receptor gamma (Homo sapiens) (UniProt P37231); assay: Binding affinity to recombinant human PPARgamma LBD at 40 uM by TR-FRET based green polar-screen PPAR competitor assay
T1 sequence (whole entry): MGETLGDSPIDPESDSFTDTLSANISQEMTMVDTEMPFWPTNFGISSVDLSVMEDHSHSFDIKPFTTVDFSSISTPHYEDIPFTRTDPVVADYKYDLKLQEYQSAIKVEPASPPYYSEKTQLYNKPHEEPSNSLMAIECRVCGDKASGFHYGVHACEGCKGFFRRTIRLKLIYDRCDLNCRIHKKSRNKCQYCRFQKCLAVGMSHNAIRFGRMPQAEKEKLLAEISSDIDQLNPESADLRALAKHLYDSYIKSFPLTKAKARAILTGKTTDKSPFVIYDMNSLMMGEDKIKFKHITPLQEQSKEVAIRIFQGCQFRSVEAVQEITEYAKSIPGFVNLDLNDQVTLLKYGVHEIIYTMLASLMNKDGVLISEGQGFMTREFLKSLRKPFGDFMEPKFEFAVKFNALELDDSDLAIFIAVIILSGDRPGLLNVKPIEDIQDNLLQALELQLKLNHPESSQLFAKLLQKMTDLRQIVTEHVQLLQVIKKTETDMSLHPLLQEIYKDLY

[14] = molecular target: Toll-like receptor 4 (Homo sapiens) (UniProt O00206); assay: as §1, with “activation” for “activation at 50 uM”
U-937 [15] = assay: Antiinflammatory activity in human U937 cells assessed as inhibition of LPS-induced IL-6 production at 10 to 80 uM preincubated for 2 hrs followed by LPS stimulation and measured after 24 hrs post LPS challenge by ELISA; format: functional, cell-based
U-937 [16] = assay: Antiinflammatory activity in human U937 cells assessed as inhibition of LPS-induced IL-1beta production at 10 to 80 uM preincubated for 2 hrs followed by LPS stimulation and measured after 24 hrs post LPS challenge by ELISA; format: functional, cell-based
U-937 [17] = assay: Antiinflammatory activity in human U937 cells assessed as inhibition of LPS-induced IL-8 production preincubated for 2 hrs followed by LPS stimulation and measured after 24 hrs post LPS challenge by ELISA; format: functional
U-937 [18] = assay: Antiinflammatory activity in human U937 cells assessed as inhibition of Escherichia coli LPS-induced IL-1beta secretion at 10 to 80 uM preincubated for 2 hrs followed by LPS stimulation and measured after 24 hrs post LPS challenge by ELISA; format: functional, cell-based
U-937 [19] = assay: Antiinflammatory activity in human U937 cells assessed as inhibition of LPS-induced IL-8 production at 10 to 20 uM preincubated for 2 hrs followed by LPS stimulation and measured after 24 hrs post LPS challenge by ELISA; format: functional, cell-based
U-937 [20] = assay: Antiinflammatory activity in human U937 cells assessed as inhibition Aggregatibacter actinomycetemcomitans LPS-induced IL-1beta secretion at 10 to 80 uM preincubated for 2 hrs followed by LPS stimulation and measured after 24 hrs post LPS challenge by ELISA; format: functional, cell-based
U-937 [21] = assay: Antiinflammatory activity in human U937 cells assessed as inhibition of LPS-induced IL-6 production at 40 to 80 uM preincubated for 2 hrs followed by LPS stimulation and measured after 24 hrs post LPS challenge by ELISA; format: functional, cell-based
U-937 [22] = assay: Antiinflammatory activity in human U937 cells assessed as inhibition of LPS-induced IL-1beta production preincubated for 2 hrs followed by LPS stimulation and measured after 24 hrs post LPS challenge by ELISA; format: functional, cell-based
[23] = molecular target: Toll-like receptor 4 (Homo sapiens) (UniProt O00206); assay: as §1, with “activation at 5 to 50 uM” for “activation at 50 uM”
[24] = molecular target: Toll-like receptor 4 (Homo sapiens) (UniProt O00206); assay: Inhibition of TLR4 in human U937-3xkappaB-LUC cells assessed as inhibition of Escherichia coli LPS-induced NF-kappaB activation at 5 to 50 uM preincubated for 30 mins followed by LPS stimulation and measured after 6 hrs post LPS challenge by Bright-Glo luciferase reporter gene assay relative to control
U-937 [25] = assay: Antiinflammatory activity in human U937 cells assessed as inhibition of Escherichia coli LPS-induced TNFalpha secretion at 10 to 80 uM preincubated for 2 hrs followed by LPS stimulation and measured after 24 hrs post LPS challenge by ELISA; format: functional, cell-based
U-937 [26] = assay: Antiinflammatory activity in human U937 cells assessed as inhibition of LPS-induced IL-8 production at 40 to 80 uM preincubated for 2 hrs followed by LPS stimulation and measured after 24 hrs post LPS challenge by ELISA; format: functional, cell-based
U-937 [27] = assay: Antiinflammatory activity in human U937 cells assessed as inhibition Aggregatibacter actinomycetemcomitans LPS-induced TNFalpha secretion at 10 to 80 uM preincubated for 2 hrs followed by LPS stimulation and measured after 24 hrs post LPS challenge by ELISA; format: functional, cell-based
U-937 [28] = assay: Antiinflammatory activity in human U937 cells assessed as inhibition of LPS-induced IL-1beta production at 20 uM preincubated for 2 hrs followed by LPS stimulation and measured after 24 hrs post LPS challenge by ELISA; format: functional, cell-based
U-937 [29] = assay: Antiinflammatory activity in human U937 cells assessed as inhibition of LPS-induced IL-8 production at 20 uM preincubated for 2 hrs followed by LPS stimulation and measured after 24 hrs post LPS challenge by ELISA; format: functional, cell-based

Row | inhibition [3] [%] | inhibition [8] [%] | inhibition [10] [%] | inhibition [11] [%] | Activity [13] | inhibition [14] | SMILES | inhibition at 80 µM (U-937 [1]) [%] | inhibition at 20 µM (U-937 [2]) [%] | inhibition at 10 µM (U-937 [4]) [%] | viability at 24 h, 10 µM [5] [%] | viability at 24 h, 20 µM [6] [%] | viability at 24 h, 80 µM [7] [%] | inhibition at 40 µM (U-937 [9]) [%] | viability at 24 h, 40 µM [12] [%] | also measured
1 | 34 | 12 | 29 | 15 | – | – | CCCCCc1cc(O)cc(O)c1Oc1cc2c(cc1OC)C(CCCC)(OC)OC2=O (configuration not stated) | 100 | 0 | 0 | 116 | 96 | 24 | 0 | 87 | –
2 | – | – | – | – | Active | – | CN(CCOc1ccc(CC2SC(=O)NC2=O)cc1)c1ccccn1 (configuration not stated) | – | – | – | – | – | – | – | – | –
3 | 99 | 26 | 60 | 28 | – | Dose-dependent effect | CCC/C=C1\OC(=O)c2cc(Oc3c(O)cc(O)cc3CCCCC)c(OC)cc21 | 100 | 0 | 0 | 117 | 101 | 10 | 90 | 38 | inhibition (U-937 [15]): inactive; inhibition (U-937 [16]): inactive
4 | 25 | 27 | 36 | 19 | inactive | – | COC(=O)c1c(C)cc(O)c(C)c1O [ATRARIC ACID] | 0 | 0 | 0 | 112 | 118 | 125 | 0 | 116 | –
5 | 67 | 17 | 38 | 24 | – | – | COC(=O)c1c(C)cc(O)c(C=O)c1O [METHYL HAEMATOMMATE] | 80 | 3 | 0 | 119 | 102 | 82 | 41 | 102 | inhibition (U-937 [17]): Dose-dependent effect
6 | 36 | 26 | 48 | 29 | Active | – | CCCCCc1cc(O)cc(O)c1Oc1cc(OC)cc2c1C(=O)OC2(O)CCCC (configuration not stated) | 7 | 0 | 0 | 118 | 124 | 114 | 0 | 122 | –
7 | 84 | 27 | 63 | 39 | – | – | CCCCCc1c(Oc2cc3c(cc2OC)C(CCCC)(OC)OC3=O)c(O)cc(O)c1C(=O)O (configuration not stated) | 100 | 0 | 0 | 126 | 131 | 52 | 3 | 121 | –
8 | 98 | 37 | 75 | 52 | Active | Dose-dependent effect | CCCCCc1c(Oc2cc(OC)cc(C(=O)CCCC)c2C(=O)OC)c(O)cc(O)c1C(=O)O | 100 | 0 | 0 | 96 | 86 | 48 | 55 | 67 | inhibition (U-937 [18]): Active; inhibition (U-937 [19]): inactive; inhibition (U-937 [20]): Active; inhibition (U-937 [21]): Active; inhibition (U-937 [22]): Dose-dependent effect; inhibition [23]: Active; inhibition [24]: Active; inhibition (U-937 [25]): Active; inhibition (U-937 [26]): Active; inhibition (U-937 [27]): Active; inhibition (U-937 [28]): inactive
9 | 99 | 29 | 78 | 42 | Active | Dose-dependent effect | CCCCCc1c2c(cc(O)c1C(=O)O)OC(=O)c1c(cc(OC)cc1C(=O)CCCC)O2 [LOBARIC ACID] | 100 | 89 | 1 | 118 | 121 | 90 | 100 | 73 | inhibition (U-937 [18]): Dose-dependent effect; inhibition (U-937 [29]): inactive; inhibition (U-937 [19]): inactive; inhibition (U-937 [20]): Dose-dependent effect; inhibition (U-937 [21]): Active; inhibition (U-937 [22]): Dose-dependent effect; inhibition [23]: Dose-dependent effect; inhibition [24]: Dose-dependent effect; inhibition (U-937 [25]): Dose-dependent effect; inhibition (U-937 [26]): Active; inhibition (U-937 [27]): Dose-dependent effect
10 | 52 | 23 | 52 | 39 | Active | – | CCCCCc1cc(O)cc(O)c1Oc1cc(OC)cc(C(=O)CCCC)c1C(=O)OC | 55 | 0 | 0 | 119 | 105 | 66 | 0 | 85 | –
